Source: patent publication US20260250290A1 (BRISTOL-MYERS SQUIBB COMPANY, priority 2023, published 2026)
Structures can show the parent of a compound that is named as a salt.

Target: T1, SGK1 (Homo sapiens, UniProt O00141)
T1 sequence (O00141 1-431): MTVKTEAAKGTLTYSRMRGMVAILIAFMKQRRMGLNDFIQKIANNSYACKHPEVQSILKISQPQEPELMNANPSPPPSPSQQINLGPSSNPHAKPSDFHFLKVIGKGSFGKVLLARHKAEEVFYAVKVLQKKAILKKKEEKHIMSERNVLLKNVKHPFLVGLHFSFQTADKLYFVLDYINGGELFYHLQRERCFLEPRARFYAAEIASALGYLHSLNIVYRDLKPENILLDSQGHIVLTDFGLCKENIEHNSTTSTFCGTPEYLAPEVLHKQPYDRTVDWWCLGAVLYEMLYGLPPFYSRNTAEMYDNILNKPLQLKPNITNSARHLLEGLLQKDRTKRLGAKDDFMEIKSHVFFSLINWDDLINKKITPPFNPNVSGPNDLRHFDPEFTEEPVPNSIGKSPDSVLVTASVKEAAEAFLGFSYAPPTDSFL
Assay: SGK1 inhibition Assay B (Echo mass spectrometry of phosphorylated peptide product)
Assay type: biochemical
Conditions: 60 min at room temperature

Compound	IC50
Cc1nc(OC2CC3CC2CN3C(C)C)c(C(=O)N[C@@H]2CCCN(c3cc(-c4ccc(-n5cnnn5)c(F)c4)n4ncnc(N)c34)C2)s1 (single isomer, unassigned) [Example 949]	0.8 nM
N#Cc1ccc(C(=O)N[C@@H]2CCCN(c3cc(-c4cnc(-n5cnnn5)c(F)c4)n4ncnc(N)c34)C2)s1 [Example 860, (R)-N-(1-(4-amino-7-(5-fluoro-6-(1H-tetrazol-1-yl)pyridin-3-yl)pyrrolo[2,1-f][1,2,4]triazin-5-yl)piperidin-3-yl)-5-cyanothiophene-2-carboxamide]	3 nM
CN1[C@@H]2CC[C@H]1C[C@H](Oc1cc(Cl)sc1C(=O)N[C@@H]1C[C@@H](F)CN(c3cc(-c4ccc(-n5cnnn5)c(F)c4)n4ncnc(N)c34)C1)C2 [Example 925, N-((3R,5R)-1-(4-amino-7-(3-fluoro-4-(1H-tetrazol-1-yl)phenyl)pyrrolo[2,1-f][1,2,4]triazin-5-yl)-5-fluoropiperidin-3-yl)-5-chloro-3-(((1R,3s,5S)-8-methyl-8-azabicyclo[3.2.1]octan-3-yl)oxy)thiophene-2-carboxamide, TFA salt]	0.4 nM
CNC(=O)c1ccc(-c2cc(N3CCC[C@@H](NC(=O)c4cccc(N5CC6(C5)CN(C(C)C)C6)n4)C3)c3c(N)ncnn23)cn1 [Example 820]	21 nM
Cc1nc(OC2CC(C)(C)N(C)C(C)(C)C2)c(C(=O)N[C@@H]2CCCN(c3cc(-c4ccc(-n5cnnn5)c(F)c4)n4ncnc(N)c34)C2)s1 [Example 965, (R)—N-(1-(4-amino-7-(3-fluoro-4-(1H-tetrazol-1-yl)phenyl)pyrrolo[2,1-f][1,2,4]triazin-5-yl)piperidin-3-yl)-2-methyl-4-((1,2,2,6,6-pentamethylpiperidin-4-yl)oxy) thiazole-5-carboxamide]	3 nM
CC(=O)c1ccc(-c2cc(N3CCC[C@@H](NC(=O)c4cccc(N5CC6(C5)CN(C(C)C)C6)n4)C3)c3c(N)ncnn23)cn1 [Example 831, (R)-N-(1-(7-(6-acetylpyridin-3-yl)-4-aminopyrrolo[2,1-f][1,2,4]triazin-5-yl)piperidin-3-yl)-6-(6-isopropyl-2,6-diazaspiro[3.3]heptan-2-yl)picolinamide]	22 nM
CN1CCN(c2nccc(C(=O)N[C@@H]3CCCN(c4cc(-c5ccc(-n6cnnn6)c(CO)c5)n5ncnc(N)c45)C3)n2)CC1 [Example 852, (R)-N-(1-(4-amino-7-(3-(hydroxymethyl)-4-(1H-tetrazol-1-yl)phenyl)pyrrolo[2,1-f][1,2,4]triazin-5-yl)piperidin-3-yl)-2-(4-methylpiperazin-1-yl)pyrimidine-4-carboxamide, TFA salt]	10 nM
Nc1ncnn2c(-c3ccc(-n4cnnn4)c(F)c3)cc(N3CCC[C@@H](NC(=O)c4sc(Cl)cc4OC4CC5CC4CN5C4COC4)C3)c12 (stereo partly drawn) [Example 994, N—((R)-1-(4-amino-7-(3-fluoro-4-(1H-tetrazol-1-yl)phenyl)pyrrolo[2,1-f][1,2,4]triazin-5-yl)piperidin-3-yl)-5-chloro-3-((2-(oxetan-3-yl)-2-azabicyclo[2.2.1]heptan-5-yl)oxy)thiophene-2-carboxamide]	0.6 nM
COC(=O)N1CC=C(c2cc(N3CCC[C@@H](NC(=O)c4sc(C)nc4OC4CC5CC(C4)N(C(C)C)C5)C3)c3c(N)ncnn23)C1 (single isomer, unassigned) [Example 953]	7 nM
CN1CC2CCC1CC2Oc1cc(Cl)sc1C(=O)N[C@@H]1CCCN(c2cc(-c3ccc(=O)n(CC(F)F)c3)n3ncnc(N)c23)C1 (stereo partly drawn) [Example 991, N—((R)-1-(4-amino-7-(1-(2,2-difluoroethyl)-6-oxo-1,6-dihydropyridin-3-yl)pyrrolo[2,1-f][1,2,4]triazin-5-yl)piperidin-3-yl)-5-chloro-3-((2-methyl-2-azabicyclo[2.2.2]octan-5-yl)oxy)thiophene-2-carboxamide]	0.8 nM
CC(=O)N1CC=C(c2cc(N3CCC[C@@H](NC(=O)[C@]45CCC[C@H]4C5)C3)c3c(N)ncnn23)C1 (mixture of isomers) [Example 916, (cis)-N-[(3R)-1-[7-(1-acetyl-2,5-dihydro-1H-pyrrol-3-yl)-4-aminopyrrolo[2,1-f][1,2,4]triazin-5-yl]piperidin-3-yl]bicyclo[3.1.0]hexane-1-carboxamide]	56 nM

Other lines, results leading:

IC50	Compound
3 nM	Cc1nc(O[C@H]2CC[C@@H](NC(C)C)C2)c(C(=O)N[C@@H]2CCCN(c3cc(-c4ccc(C(N)=O)c(F)c4)n4ncnc(N)c34)C2)s1 [Example 940, N—((R)-1-(4-Amino-7-(4-carbamoyl-3-fluorophenyl)pyrrolo[2,1-f][1,2,4]triazin-5-yl)piperidin-3-yl)-4-(((1S,3R)-3-(isopropylamino)cyclopentyl)oxy)-2-methylthiazole-5-carboxamide]
0.8 nM	CCC1=C(c2cc(N3CCC[C@@H](NC(=O)c4sc(C)nc4O[C@H]4CC[C@@H](N(C)C)CC4)C3)c3c(N)ncnn23)COC1=O [Example 1018, N—((R)-1-(4-amino-7-(4-ethyl-5-oxo-2,5-dihydrofuran-3-yl)pyrrolo[2,1-f][1,2,4]triazin-5-yl)piperidin-3-yl)-4-(((1S,4S)-4-(dimethylamino)cyclohexyl)oxy)-2-methylthiazole-5-carboxamide]
0.5 nM	COc1nc(-c2cc(N3CCC[C@@H](NC(=O)c4sc(C)nc4OC4CCC(N5CCC5)CC4)C3)c3c(N)ncnn23)ccc1C(N)=O (stereo partly drawn) [Example 1045, (R)—N-(1-(4-amino-7-(5-carbamoyl-6-methoxypyridin-2-yl)pyrrolo[2,1-f][1,2,4]triazin-5-yl)piperidin-3-yl)-4-((4-(azetidin-1-yl)cyclohexyl)oxy)-2-methylthiazole-5-carboxamide]
1.7 nM	COc1nc(-c2cc(N3CCC[C@@H](NC(=O)c4sc(C)nc4O[C@H]4CC[C@@H](N(C)C)CC4)C3)c3c(N)ncnn23)ccc1C(N)=O [Example 1057, N—((R)-1-(4-amino-7-(5-carbamoyl-6-methoxypyridin-2-yl)pyrrolo[2,1-f][1,2,4]triazin-5-yl)piperidin-3-yl)-4-(((1S,4S)-4 (dimethylamino)cyclohexyl)oxy)-2-methylthiazole5-carboxamide]
17 nM	Cc1nc(OC2CC3(CCN(C)CC3)C2)c(C(=O)N[C@@H]2CCCN(c3cc(-c4ccc(C#N)nc4)n4ncnc(N)c34)C2)s1 [Example 955, (R)—N-(1-(4-amino-7-(6-cyanopyridin-3-yl)pyrrolo[2,1-f][1,2,4]triazin-5-yl)piperidin-3-yl)-2-methyl-4-((7-methyl-7-azaspiro[3.5]nonan-2-yl)oxy)thiazole-5-carboxamide]
5 nM	Cc1nc(O[C@@H]2C[C@H]3CC[C@@H](C2)N3C)c(C(=O)N[C@@H]2CCCN(c3cc(-c4ccc5c(c4)CNC5=O)n4ncnc(N)c34)C2)s1 [Example 961, N-((R)-1-(4-amino-7-(1-oxoisoindolin-5-y1)pyrrolo[2,1-f][1,2,4]triazin-5-y1)piperidin-3-y1)-2-methy1-4-(((IR,3s,5S)-8-methyl-8-azabicyclo[3.2.1]octan-3-yl)oxy)thiazole-5-carboxamide]
4 nM	Cc1nc(O[C@H]2CC[C@@H](NCCC#N)CC2)c(C(=O)N[C@@H]2CCCN(c3cc(-c4ccc(C(N)=O)c(F)c4)n4ncnc(N)c34)C2)s1 [Example 979, N—((R)-1-(4-Amino-7-(4-carbamoyl-3-fluorophenyl)pyrrolo[2,1-f][1,2,4]triazin-5-yl)piperidin-3-yl)-4-(((1s,4S)-4-((2-cyanoethyl)amino)cyclohexyl)oxy)-2-methylthiazole-5-carboxamide]
1 nM	CN(C)C1CC2(CC(Oc3cc(Cl)sc3C(=O)N[C@@H]3CCCN(c4cc(-c5ccc(C(N)=O)c(F)c5)n5ncnc(N)c45)C3)C2)C1 (stereo partly drawn) [Example 944, (R)—N-(1-(4-Amino-7-(4-carbamoyl-3-fluorophenyl)pyrrolo[2,1-f][1,2,4]triazin-5-yl)piperidin-3-yl)-5-chloro-3-((6-(dimethylamino)spiro[3.3]heptan-2-yl)oxy)thiophene-2-carboxamide]
0.9 nM	Cc1nc(OC2CCC(N3CCC3)CC2)c(C(=O)N[C@@H]2CCCN(c3cc(-c4nc(C(N)=O)cs4)n4ncnc(N)c34)C2)s1 (stereo partly drawn) [Example 1052, (R)-2-(4-amino-5-(3-(4-((4-(azetidin-1-yl)cyclohexyl)oxy)-2-methylthiazole-5-carboxamido)piperidin-1-yl)pyrrolo[2,1-f][1,2,4]triazin-7-yl)thiazole-4-carboxamide]
14 nM	COC(=O)N1CC=C(c2cc(N3CCC[C@@H](NC(=O)c4sc(C)nc4OC4CCN(C)CC4)C3)c3c(N)ncnn23)C1 [Example 360, Methyl (R)-3-(4-amino-5-(3-(2-methyl-4-((1-methylpiperidin-4-yl)oxy)thiazole-5-carboxamido)piperidin-1-yl)pyrrolo[2,1-f][1,2,4]triazin-7-yl)-2,5-dihydro-1H-pyrrole-1-carboxylate]
3 nM	CNC(=O)c1ccc(-c2cc(N3CCC[C@@H](NC(=O)c4sc(C)nc4O[C@H]4CC[C@@H](N(C)C)CC4)C3)c3c(N)ncnn23)cc1F [Example 932, N—((R)-1-(4-amino-7-(3-fluoro-4-(methylcarbamoyl)phenyl)pyrrolo[2,1-f][1,2,4]triazin-5-yl)piperidin-3-yl)-4-(((1s,4S)-4-(dimethylamino)cyclohexyl)oxy)-2-methylthiazole-5-carboxamide]
2 nM	Cc1nc(OC2CCC(N3CCC3)CC2)c(C(=O)N[C@@H]2CCCN(c3cc(-c4ccc(C(N)=O)c(F)c4)n4ncnc(N)c34)C2)s1 (single isomer, unassigned) [Example 943]
